According to patent US20200277556A1, “USE OF AN ADDITIVE TO IMPROVE THE QUALITY OF BEVERAGES BASED ON PLANT MUSTS” (OENOTROPIC INNOVATION, priority 2017, published 2020):

Test system: Wine Proteins
Assay: Effect of different cofactors on the activity of bromelain on wine, SDS PAGE
Format: biochemical
Details: CaCl2 as cofactor of bromelain; data not presented
Description: Cysteine is known to improve the activity of bromelain. […] To test the relevance of using methionine and glutathione as cofactors of a cysteine protease, the inventors compared the effect of these cofactors to the effect of cysteine on the activity of bromelain in wine. To this end, the following protocol has been implemented: • Wine: Gewurztraminer type with a pH of 3.8; • Add 10 mM of cysteine, glutathione or methionine, for 3 wine samples; • Weigh four times 8 mg of the pre-purified extract obtained from the sequence of steps 1, 2 and 4 of the above method; • Dissolve each pre-purified extract in wine, wine in the presence of cysteine, wine in the presence of glutathione and wine in the presence of methionine; • Leave in contact for 16 hours, with the plate stirring at 80 rpm and at room temperature; • Take 60 μl of the supernatant; • Add 20 μl of Laemmli 4×; • Place 50 μl on SDS PAGE gel.

## [Ca+2].[Cl-].[Cl-] [CaCl2, calcium chloride]
  effect on the hydrolysis of wine proteins: positive effect
